Assay: recombinant barcode read abundance after kanamycin selection (control-corrected) (log10(CPM+1)); higher = more efficient recombination; sequences stand for … in AGTGCAGAGAAAATCGGCCAGTTTTCTCTGCCTGCAGTCCGCATGCCGT…AGATTTATGCAGCGGACTGCCTTTCTCCCAAAGTGATAAACCGGACAGTATCATGGACCGGTTTTCCCGGTAATCCGTATTTGCAAGGTTGGTTTCACT; site = the 11-nt target
Procedure, shortened: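 Targets and IS621 bridge RNA target-binding loops were paired in oligos, each with a promoter, a barcode and the J23119-driven first 104 bridge RNA bases. A vector carrying the remaining 73 bp and a T7-inducible recombinase received these by Gibson cloning, and the pool was co-electroporated into E. coli with a donor plasmid. Duplicate plates contained chloramphenicol/ampicillin LB agar (control) or chloramphenicol/ampicillin/kanamycin with 0.1 mM IPTG. Recombination efficiency comes from averaged, control-corrected counts per million of recombinant-junction barcodes, reported as log10(CPM+1).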
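Also: IS621 recombinase and bridge RNA in Escherichia coli cells.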

Sequence: AGGTCCTCTTGGGTTCTAACCTGTTGCTA (site AGGTCCTCTTA)
- recombinant barcode read abundance (log10): 1.96

Sequence: AGGTCCTCTTGGGTTCTAACCTGTTGCTA (site TGATCCTCTTA)
- recombinant barcode read abundance (log10): 0.0783

Sequence: AGGTGCTCTTGGGTTCTAACCTGTTGCCT (site AAGTGCTCTAG)
- recombinant barcode read abundance (log10): 0.0629

Sequence: AGGTGCTCTTGGGTTCTAACCTGTTGCCT (site ACGTGCTCTAG)
- recombinant barcode read abundance (log10): 0.179

Sequence: AGGTGCTCTTGGGTTCTAACCTGTTGCCT (site AGGTGCTCTAG)
- recombinant barcode read abundance (log10): 1.6

Sequence: AGGTGCTCTTGGGTTCTAACCTGTTGCCT (site ATGTGCTCTAG)
- recombinant barcode read abundance (log10): 0.107

Sequence: AGGTGTCCTTGGGTTCTAACCTGTTGCTT (site AGGTGTCCTAA)
- recombinant barcode read abundance (log10): 1.4

Sequence: AGGTGTCCTTGGGTTCTAACCTGTTGCTT (site CGGTGTCCTAA)
- recombinant barcode read abundance (log10): 0.0102

Sequence: AGGTTAGCTTGGGTTCTAACCTGTTGCTA (site AGGTTAGCTTA)
- recombinant barcode read abundance (log10): 0.0546

Sequence: AGGTTAGCTTGGGTTCTAACCTGTTGCTA (site GCAAGTACTCT)
- recombinant barcode read abundance (log10): 0.538

Sequence: AGTAACCCTTGGGTTCTAACCTGTTGCCT (site AATAACCCTAG)
- recombinant barcode read abundance (log10): 0.0627

Sequence: AGTAACCCTTGGGTTCTAACCTGTTGCCT (site ACTAACCCTAG)
- recombinant barcode read abundance (log10): 0.158

Sequence: AGTAACCCTTGGGTTCTAACCTGTTGCCT (site AGTAACCCTAG)
- recombinant barcode read abundance (log10): 1.22

Sequence: AGTAACCCTTGGGTTCTAACCTGTTGCCT (site ATTAACCCTAG)
- recombinant barcode read abundance (log10): 0.137

Sequence: AGTAAGACTTGGGTTCTAACCTGTTGCAT (site AGTAAGACTAA)
- recombinant barcode read abundance (log10): 0.197

Sequence: AGTAAGACTTGGGTTCTAACCTGTTGCAT (site AGTAAGACTAC)
- recombinant barcode read abundance (log10): 0.0256

Sequence: AGTAAGACTTGGGTTCTAACCTGTTGCAT (site AGTAAGACTAG)
- recombinant barcode read abundance (log10): 0.423

Sequence: AGTAAGACTTGGGTTCTAACCTGTTGCAT (site AGTAAGACTAT)
- recombinant barcode read abundance (log10): 1.41

Sequence: AGTAAGCCTTGGGTTCTAACCTGTTGCAG (site ACTAAGCCTCC)
- recombinant barcode read abundance (log10): 0.133

Sequence: AGTAAGCCTTGGGTTCTAACCTGTTGCAG (site AGTAAGCCTCT)
- recombinant barcode read abundance (log10): 1.12

Sequence: AGTAAGCCTTGGGTTCTAACCTGTTGCCT (site AGTAAGCCTAG)
- recombinant barcode read abundance (log10): 0.864

Sequence: AGTAAGCCTTGGGTTCTAACCTGTTGCCT (site AGTCAGCCTAG)
- recombinant barcode read abundance (log10): 0.243

Sequence: AGTAAGCCTTGGGTTCTAACCTGTTGCCT (site AGTGAGCCTAG)
- recombinant barcode read abundance (log10): 0.187

Sequence: AGTAAGCCTTGGGTTCTAACCTGTTGCCT (site AGTTAGCCTAG)
- recombinant barcode read abundance (log10): 0.173

Sequence: AGTACGTCTTGGGTTCTAACCTGTTGCTT (site AGTACGTCTAA)
- recombinant barcode read abundance (log10): 0.201

Sequence: AGTACGTCTTGGGTTCTAACCTGTTGCTT (site GTTACGTCTAA)
- recombinant barcode read abundance (log10): 0.0179

Sequence: AGTACTCCTTGGGTTCTAACCTGTTGCTG (site AATACTACTCA)
- recombinant barcode read abundance (log10): 0.085

Sequence: AGTACTCCTTGGGTTCTAACCTGTTGCTG (site AGTACTCCTCA)
- recombinant barcode read abundance (log10): 0.172

Sequence: AGTATAACTTGGGTTCTAACCTGTTGCTG (site AGTATAACTCA)
- recombinant barcode read abundance (log10): 0.24

Sequence: AGTATAACTTGGGTTCTAACCTGTTGCTG (site GTGTACCCTGT)
- recombinant barcode read abundance (log10): 0.178

Sequence: AGTCATTCTTGGGTTCTAACCTGTTGCAT (site AGTCAGTCTAC)
- recombinant barcode read abundance (log10): 0.166

Sequence: AGTCATTCTTGGGTTCTAACCTGTTGCAT (site AGTCATTCTAT)
- recombinant barcode read abundance (log10): 0.45

Sequence: AGTCCCGCTTGGGTTCTAACCTGTTGCCA (site AGTCCCGCTTG)
- recombinant barcode read abundance (log10): 1.67

Sequence: AGTCCCGCTTGGGTTCTAACCTGTTGCCA (site GCATATACTAC)
- recombinant barcode read abundance (log10): 0.212

Sequence: AGTCCTACTTGGGTTCTAACCTGTTGCAG (site AGGCTTACTCT)
- recombinant barcode read abundance (log10): 0.234

Sequence: AGTCCTACTTGGGTTCTAACCTGTTGCAG (site AGTCCTACTCT)
- recombinant barcode read abundance (log10): 0.794

Sequence: AGTCGGACTTGGGTTCTAACCTGTTGCAC (site AGTCGGACTGT)
- recombinant barcode read abundance (log10): 0.846

Sequence: AGTCGGACTTGGGTTCTAACCTGTTGCAC (site CACGATCCTAA)
- recombinant barcode read abundance (log10): 0.0668

Sequence: AGTCTCGCTTGGGTTCTAACCTGTTGCGG (site AGTATCGCTCC)
- recombinant barcode read abundance (log10): 0.0167

Sequence: AGTCTCGCTTGGGTTCTAACCTGTTGCGG (site AGTCTCGCTCC)
- recombinant barcode read abundance (log10): 0.345

Sequence: AGTCTCGCTTGGGTTCTAACCTGTTGCGG (site AGTGTCGCTCC)
- recombinant barcode read abundance (log10): 0.0171

Sequence: AGTCTCGCTTGGGTTCTAACCTGTTGCGG (site AGTTTCGCTCC)
- recombinant barcode read abundance (log10): 0.0153

Sequence: AGTCTCTCTTGGGTTCTAACCTGTTGCCT (site AGTCTCTCTAG)
- recombinant barcode read abundance (log10): 0.688

Sequence: AGTCTCTCTTGGGTTCTAACCTGTTGCCT (site AGTGACTCTAG)
- recombinant barcode read abundance (log10): 0.0251

Sequence: AGTCTCTCTTGGGTTCTAACCTGTTGCTA (site AGTCTCTCTCG)
- recombinant barcode read abundance (log10): 0.128

Sequence: AGTCTCTCTTGGGTTCTAACCTGTTGCTA (site AGTCTCTCTTA)
- recombinant barcode read abundance (log10): 1.21

Sequence: AGTGAAGCTTGGGTTCTAACCTGTTGCAC (site AGTGAAGCTGT)
- recombinant barcode read abundance (log10): 2.33

Sequence: AGTGAAGCTTGGGTTCTAACCTGTTGCAC (site CACTTCCCTTC)
- recombinant barcode read abundance (log10): 0.298

Sequence: AGTGAGCCTTGGGTTCTAACCTGTTGCCT (site AGTAAGCCTAG)
- recombinant barcode read abundance (log10): 0.344

Sequence: AGTGAGCCTTGGGTTCTAACCTGTTGCCT (site AGTCAGCCTAG)
- recombinant barcode read abundance (log10): 0.0584

Sequence: AGTGAGCCTTGGGTTCTAACCTGTTGCCT (site AGTGAGCCTAG)
- recombinant barcode read abundance (log10): 1.26

Sequence: AGTGAGCCTTGGGTTCTAACCTGTTGCCT (site AGTTAGCCTAG)
- recombinant barcode read abundance (log10): 0.0633

Sequence: AGTGGACCTTGGGTTCTAACCTGTTGCCC (site AGTGGACCTGG)
- recombinant barcode read abundance (log10): 1.86

Sequence: AGTGGACCTTGGGTTCTAACCTGTTGCCC (site TCCCATACTAT)
- recombinant barcode read abundance (log10): 0.0634

Sequence: AGTGGAGCTTGGGTTCTAACCTGTTGCCT (site AGGGGATCTAG)
- recombinant barcode read abundance (log10): 0.0601

Sequence: AGTGGAGCTTGGGTTCTAACCTGTTGCCT (site AGTGGAGCTAG)
- recombinant barcode read abundance (log10): 2.27

Sequence: AGTGGGACTTGGGTTCTAACCTGTTGCCA (site AGTGGGACTTG)
- recombinant barcode read abundance (log10): 1.56

Sequence: AGTGGGACTTGGGTTCTAACCTGTTGCCA (site GGTGAGACTTG)
- recombinant barcode read abundance (log10): 0.0594

Sequence: AGTTAGTCTTGGGTTCTAACCTGTTGCCA (site AGTCAGTCTTG)
- recombinant barcode read abundance (log10): 0.0961

Sequence: AGTTAGTCTTGGGTTCTAACCTGTTGCCA (site AGTTAGTCTTG)
- recombinant barcode read abundance (log10): 0.0604

Sequence: AGTTCGACTTGGGTTCTAACCTGTTGCCT (site AATTCGACTAG)
- recombinant barcode read abundance (log10): 0.0143

Sequence: AGTTCGACTTGGGTTCTAACCTGTTGCCT (site ACTTCGACTAG)
- recombinant barcode read abundance (log10): 0.0163

Sequence: AGTTCGACTTGGGTTCTAACCTGTTGCCT (site AGTTCGACTAG)
- recombinant barcode read abundance (log10): 0.429

Sequence: AGTTCGACTTGGGTTCTAACCTGTTGCCT (site ATTTCGACTAG)
- recombinant barcode read abundance (log10): 0.234

Sequence: AGTTCGCCTTGGGTTCTAACCTGTTGCTA (site AGTGCGCCTTA)
- recombinant barcode read abundance (log10): 0.317

Sequence: AGTTCGCCTTGGGTTCTAACCTGTTGCTA (site AGTTCGCCTTA)
- recombinant barcode read abundance (log10): 0.012

Sequence: AGTTGGCCTTGGGTTCTAACCTGTTGCAG (site AGTTGGCCTCT)
- recombinant barcode read abundance (log10): 0.39

Sequence: AGTTGGCCTTGGGTTCTAACCTGTTGCAG (site CTAACTACTAA)
- recombinant barcode read abundance (log10): 0.313

Sequence: AGTTGGGCTTGGGTTCTAACCTGTTGCTG (site AGCTGGGCTCC)
- recombinant barcode read abundance (log10): 0.154

Sequence: AGTTGGGCTTGGGTTCTAACCTGTTGCTG (site AGTTGGGCTCA)
- recombinant barcode read abundance (log10): 1.02

Sequence: ATAAAACCTTGGGTTCTAACCTGTTGCCT (site ATAAAACCTAG)
- recombinant barcode read abundance (log10): 1.23

Sequence: ATAAAACCTTGGGTTCTAACCTGTTGCCT (site CTAAAACCTAG)
- recombinant barcode read abundance (log10): 0.64

Sequence: ATAAAACCTTGGGTTCTAACCTGTTGCCT (site GTAAAACCTAG)
- recombinant barcode read abundance (log10): 0.114

Sequence: ATAAAACCTTGGGTTCTAACCTGTTGCCT (site TTAAAACCTAG)
- recombinant barcode read abundance (log10): 0.244

Sequence: ATAAAGCCTTGGGTTCTAACCTGTTGCCT (site ATAAAGCCTAG)
- recombinant barcode read abundance (log10): 2.05

Sequence: ATAAAGCCTTGGGTTCTAACCTGTTGCCT (site ATAAGGCCTAG)
- recombinant barcode read abundance (log10): 0.0177

Sequence: ATAAATCCTTGGGTTCTAACCTGTTGCCT (site ATAAATCCTAG)
- recombinant barcode read abundance (log10): 0.632
